Measured values from patent US7226923B2, “Phthalazinone derivatives” (Hoffman-La Roche Inc., priority 2004, dated 2007).

Experiments:
HCT 116 cells = assay: CellTiter-Glo assay in HCT 116 cells; assay type: cell-based, human; settings: Homo sapiens, HCT-116, 120 h, 5 days incubation, 30 μM to 0.0015 μM
In short: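 Cells seeded at 1000/well in RPMI 1640 with 5% FCS, grown 24 h at 37 °C, then treated with 10 concentrations from 30 μM to 0.0015 μM (1:3 dilutions). After 5 days viability was read as ATP-based luminescence (CellTiter-Glo) following 30 min room-temperature equilibration and lysis.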

Aurora A = target: T1, Aurora A (Homo sapiens, UniProt O14965); assay: IC50 determination for inhibitors of Aurora A (96 MTP-ELISA); assay type: biochemical; settings: His4-tagged full-length Aurora A 250 ng/ml, PKB-GSK2 200 nM, ATP 4 μM, 90 min at room temperature, read-out: IC50 Aurora A kinase inhibition
T1 construct: C-terminally Histidine4 (His4)-tagged Aurora A full-length protein
T1 sequence (O14965 1-403): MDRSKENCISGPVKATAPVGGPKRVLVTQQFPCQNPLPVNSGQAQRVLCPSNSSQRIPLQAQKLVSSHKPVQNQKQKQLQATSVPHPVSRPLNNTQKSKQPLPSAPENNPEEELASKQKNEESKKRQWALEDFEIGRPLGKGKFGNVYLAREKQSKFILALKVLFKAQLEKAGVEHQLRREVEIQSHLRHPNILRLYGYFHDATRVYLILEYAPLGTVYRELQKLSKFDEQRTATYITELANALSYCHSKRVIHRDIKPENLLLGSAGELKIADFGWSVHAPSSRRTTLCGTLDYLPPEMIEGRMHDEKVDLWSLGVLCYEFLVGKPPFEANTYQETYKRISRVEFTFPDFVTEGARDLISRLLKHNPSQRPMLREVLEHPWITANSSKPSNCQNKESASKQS

SMILES | IC50 (HCT 116 cells) [nM] | IC50 (Aurora A) [nM]
CCC(C)c1ccc(-n2nc(Nc3cc(C)n[nH]3)c3ccccc3c2=O)cc1 (stereo not shown) [Example P-2, 2-(4-sec-Butyl-phenyl)-4-(5-methyl-2H-pyrazol-3-ylamino)-2H-phthalazin-1-one] | 10000 to 100000 | 1 to 100
Cc1cc(Nc2nn(C(C)C)c(=O)c3cc(CO)ccc23)n[nH]1 [Example M-9, 7-Hydroxymethyl-2-isopropyl-4-(5-methyl-1H-pyrazol-3-ylamino)-2H-phthalazin-1-one] | 100 to 10000 | 1 to 100
Cc1cc(Nc2nn(-c3ccc(NC(=O)c4ccccc4)cc3)c(=O)c3ccccc23)n[nH]1 [Example T-4, N-{4-[4-(5-Methyl-1H-pyrazol-3-ylamino)-1-oxo-1H-phthalazin-2-yl]-phenyl}-benzamide] | 100 to 10000 | 100 to 1000
Cc1cc(Nc2nn(-c3ccc(C(C)(C)C)cc3)c(=O)c3cc([N+](=O)[O-])ccc23)[nH]n1 [Example ZB-3, 2-(4-tert-Butyl-phenyl)-4-(5-methyl-2H-pyrazol-3-ylamino)-7-nitro-2H-phthalazin-1-one] | 100 to 10000 | 1 to 100
Cc1cc(Nc2nn(C(C)C)c(=O)c3cc(N(C)CCN4CCOCC4)ccc23)n[nH]1 [Example I-1, 2-Isopropyl-7-[methyl-(2-morpholin-4-yl-ethyl)-amino]-4-(5-methyl-1H-pyrazol-3-ylamino)-2H-phthalazin-1-one] | 100 to 10000 | 1 to 100
Cc1cc(Nc2nn(-c3ccc(N4CCCCC4)cc3)c(=O)c3ccccc23)[nH]n1 [Example V-1, 4-(5-Methyl-2H-pyrazol-3-ylamino)-2-(4-piperidin-1-yl-phenyl)-2H-phthalazin-1-one] | 100 to 10000 | 1 to 100
Cc1cc(Nc2nn(-c3ccc(N4CCOCC4)cc3)c(=O)c3ccccc23)n[nH]1 [Example U-2, 4-(5-Methyl-1H-pyrazol-3-ylamino)-2-(4-morpholin-4-yl-phenyl)-2H-phthalazin-1-one] | 100 to 10000 | 1 to 100
Cc1cc(Nc2nn(-c3ccc([N+](=O)[O-])cc3)c(=O)c3ccccc23)n[nH]1 [Example W-3, 4-(5-Methyl-1H-pyrazol-3-ylamino)-2-(4-nitro-phenyl)-2H-phthalazin-1-one] | 10000 to 100000 | 1 to 100
Cc1cc(Nc2nn(CC(=O)c3ccc(OC(F)(F)F)cc3)c(=O)c3ccccc23)n[nH]1 [Example E-6, 4-(5-Methyl-1H-pyrazol-3-ylamino)-2-[2-oxo-2-(4-trifluoromethoxy-phenyl)-ethyl]-2H-phthalazin-1-one] | 10000 to 100000 | 100 to 1000

Further lines, results first:

IC50 (HCT 116 cells) [nM] | IC50 (Aurora A) [nM] | SMILES
100 to 10000 | 1 to 100 | COC(=O)c1ccc2c(Nc3cc(C)[nH]n3)nn(C(C)C)c(=O)c2c1 [Example M-8, 3-Isopropyl-1-(5-methyl-1H-pyrazol-3-ylamino)-4-oxo-3,4-dihydro-phthalazine-6-carboxylic acid methyl ester]
100 to 10000 | 1 to 100 | Cc1cc(Nc2nn(C(C)C)c(=O)c3cc(F)ccc23)n[nH]1 [Example E-2, 7-Fluoro-2-isopropyl-4-(5-methyl-1H-pyrazol-3-ylamino)-2H-phthalazin-1-one]
100 to 10000 | 1 to 100 | Cc1cc(Nc2nn(-c3ccc(Nc4ccccc4)cc3)c(=O)c3ccccc23)n[nH]1 [Example U-1, 4-(5-Methyl-1H-pyrazol-3-ylamino)-2-(4-phenylamino-phenyl)-2H-phthalazin-1-one]
100 to 10000 | 100 to 1000 | Cc1cc(Nc2nn(CC(=O)c3ccc4c(c3)OCO4)c(=O)c3ccccc23)n[nH]1 [Example E-7, 2-(2-Benzo[1,3]dioxol-5-yl-2-oxo-ethyl)-4-(5-methyl-1H-pyrazol-3-ylamino)-2H-phthalazin-1-one]
100 to 10000 | 1 to 100 | CCN(CC)C(=O)c1ccc2c(Nc3cc(C)[nH]n3)nn(C(C)C)c(=O)c2c1 [Example M-3, 3-Isopropyl-1-(5-methyl-1H-pyrazol-3-ylamino)-4-oxo-3,4-dihydro-phthalazine-6-carboxylic acid diethylamide]
